Test results as given in patent publication US5869479A, “Treatment of upper airway allergic responses” (Schering Corporation, priority 1997, dated 1999).

Legend:
[1] = test system: nasal airway resistance; test: Nasal airway resistance (NAR) in anesthetized cats after aerosolized Compound 48/80 challenge; type: in vivo
From the text: (§1) Adult cats are anesthetized with intraperitoneal injections of sodium pentobarbital. The right femoral artery and vein are cannulated for measurement of blood pressure with a pressure transducer, and for the administration of drugs. The animals are paralyzed with intravenous gallamine triethiodide and subsequently mechanically ventilated with room air, using an animal ventilator. After isolation of the cervical […], a cuffed endotracheal tube is advanced rostrally into the posterior nasopharynx and inflated to form an air-tight seal, allowing continuous measurement of pressure changes within the nasal cavity. The right nasal airway is occluded with dental impression compound, and humidified air is passed through the left nasal airway at about 1.7 liters per minute. By means of pressure transducers, nasal airway pressure and insufflation pressure can be derived and electronically recorded.
The known histamine releaser "Compound 48/80" (the condensation product of N-methyl-p-methoxyphenethylamine with formaldehyde, sold by Sigma Chemical Company, St. Louis, Mo., USA), as a 1.0 percent solution in 0.9 percent aqueous saline solution, is aerosolized into the air stream for 2 minutes to induce an increased NAR. This effect is used to study the decongestant effects of various test substances, administered to the animals intravenously 10 minutes prior to the introduction of Compound 48/80. These substances include 0.9 percent aqueous saline (normal saline "Vehicle"), phenylpropanolamine hydrochloride at 1.0 mg/Kg of the free drug, thioperamide maleate at 10 mg/Kg of the free drug and chlorpheniramine maleate at 0.8 mg/Kg of the free drug, all of the drug compounds being in solution in 0.9 percent aqueous saline. […]

[2] = Blood pressure change from baseline in the cat experiments; type: in vivo, cats; settings: Example 4, phenylpropanolamine 1 mg/Kg
From the text: as §1
The known histamine releaser "Compound 48/80" (the condensation product of N-methyl-p-methoxyphenethylamine with formaldehyde, sold by Sigma Chemical Company, St. Louis, Mo., USA), as a 1.0 percent solution in 0.9 percent aqueous saline solution, is aerosolized into the air stream for 2 minutes to induce an increased NAR. This effect is used to study the decongestant effects of various test substances, administered to the animals intravenously 10 minutes prior to the introduction of Compound 48/80. These substances include 0.9 percent aqueous saline (normal saline "Vehicle"), phenylpropanolamine hydrochloride at 1.0 mg/Kg of the free drug, thioperamide maleate at 10 mg/Kg of the free drug and chlorpheniramine maleate at 0.8 mg/Kg of the free drug, all of the drug compounds being in solution in 0.9 percent aqueous saline.
Blood pressure data from the experiments of the preceding examples are examined, to determine the effects of certain congestion-preventing treatments.

[3] = molecular target: T1, histamine H3 receptor (Cavia porcellus, UniProt Q9JI35); test: Guinea pig brain membrane assay, affinity for histamine H3 receptor binding sites (Korte et al.); settings: Example 5
T1 construct: from tissue; host or cells: guinea pig brain membranes
From the text: A particularly useful screening assay measures binding to sites in guinea pig brain membranes. This test is described in detail by Korte et al., "Characterization and Tissue Distribution of H3 Histamine Receptors in Guinea Pigs by N^α -Methylhistamine," in Biochemical and Biophysical Research Communications, Vol. 168, pages 979-986 (1990), and quantifies the displacement of bound radiolabeled N^α -methylhistamine from tissues by candidate compounds. Results are expressed as "Ki " values, in nanoMolar (nM) units, which values can be considered as being dissociation constants for the H3 antagonist on the H3 receptor system, or an index of antagonist affinity for the receptor. The present inventors have evidence that decongestant activity in their invention for a given H3 antagonist concentration can be predicted to increase as the Ki value obtained from the assay for an antagonist decreases. In general, Ki values less than about 200 nM are considered necessary for an agent to be useful as an H3 antagonist in the invention.
The affinity of various histamine H3 receptor antagonists for binding sites is determined by a guinea pig brain membrane assay, according to the procedure of Korte et al., Biochemical and Biophysical Research Communications, Vol. 168, pages 979-986 (1990).

[4] = Example 1, i.v. 10 min before Compound 48/80, phenylpropanolamine 1.0 mg/Kg, thioperamide 10 mg/Kg, chlorpheniramine 0.8 mg/Kg (free drug), vehicle 9.1, baseline 2.6

T1 sequence (Q9JI35 whole entry): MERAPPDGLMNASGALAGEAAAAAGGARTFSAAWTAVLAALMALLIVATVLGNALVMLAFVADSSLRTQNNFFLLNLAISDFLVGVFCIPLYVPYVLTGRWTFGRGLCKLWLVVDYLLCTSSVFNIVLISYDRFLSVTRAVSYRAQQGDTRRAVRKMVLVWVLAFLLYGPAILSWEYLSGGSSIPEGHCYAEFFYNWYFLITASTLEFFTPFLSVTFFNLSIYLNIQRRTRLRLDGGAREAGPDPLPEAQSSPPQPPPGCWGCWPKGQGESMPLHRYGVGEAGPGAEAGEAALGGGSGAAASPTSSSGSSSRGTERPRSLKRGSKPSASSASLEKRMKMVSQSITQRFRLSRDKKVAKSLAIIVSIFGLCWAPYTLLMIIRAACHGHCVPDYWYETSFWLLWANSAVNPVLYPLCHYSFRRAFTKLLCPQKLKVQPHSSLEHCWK

CN(C)CCC(c1ccc(Cl)cc1)c1ccccn1 (centres unmarked) [Chlorpheniramine, chlorpheniramine]
NAR (nasal airway resistance) [1, 4]: 6.0 centimeters of water/liters pe

NC(=NCc1ccc(Cl)cc1)SCCCc1cnc[nH]1 [Clobenpropit, clobenpropit]
Prevention of nasal congestion (in words) ([1]; Example 3, clobenpropit alone or with chlorpheniramine 0.8 mg/Kg): does not exhibit significant prevention of nasal congestion | NAR (nasal airway resistance) ([1]; Example 3, i.v., clobenpropit 1.0 mg/Kg alone, vehicle 9.1): 5.5 centimeters of water/liters pe

CCOC(=O)N1CCC(=C2c3ccc(Cl)cc3CCc3cccnc32)CC1 [Loratadine, loratadine]
NAR (nasal airway resistance) ([1]; Example 6, loratadine 3 mg/Kg, thioperamide 10 mg/Kg, vehicle 30% dimethylsulfoxide, 40% ethanol, 30% normal saline (vehicle 12.6)): 10.2 centimeters of water/liters pe

CC(N)C(O)c1ccccc1 (centres unmarked) [Phenylpropanolamine, phenylpropanolamine]
NAR (nasal airway resistance) [1, 4]: 2.9 centimeters of water/liters pe | Statistical difference of NAR from vehicle ([1]; Example 1, phenylpropanolamine 1.0 mg/Kg i.v.): statistically different result from that for the vehicle | Nasal congestion-preventing effect compared with thioperamide + chlorpheniramine combination ([1]; Example 4 comment, phenylpropanolamine 1 mg/Kg): approximately equivalent nasal congestion-preventing effect | Blood pressure, change from baseline ([2]; i.v., thioperamide 10 mg/Kg + CPA 0.8 mg/kg, vehicle -16): +31 mm Hg | Statistical difference of blood pressure change from vehicle [2]: statistically different from those for the vehicle | Effect on blood pressure (in words) ([2]; thioperamide 10 mg/Kg + CPA 0.8 mg/kg): significantly increases blood pressure

S=C(NC1CCCCC1)N1CCC(c2cnc[nH]2)CC1 [Thioperamide, thioperamide]
NAR (nasal airway resistance) [1, 4]: 6.7 centimeters of water/liters pe

COc1ccc(C/C(=N\O)C(=O)NCCc2c[nH]cn2)cc1Br [Verongamine, verongamine]
Ki [3]: > 200 nM | Statistical difference of NAR from vehicle ([1]; Example 5, verongamine 10 mg/Kg): not statistically different from that for the vehicle | NAR (nasal airway resistance) ([1]; Example 5, verongamine 10 mg/Kg, different vehicle (vehicle 7.8)): 7.3 centimeters of water/liters pe
